Read-outs that look alike come from different tables or passages of the source. Values belong to the compound of their own block, whether it stands above or below them.
Tests used:
[1] = target: Human factor Xa (Homo sapiens, UniProt P00742); test: Xa Assay; assay type: biochemical; parameters: purchased Enzyme Research Laboratories, South Bend Ind
[2] = target: T1, recombinant soluble tissue factor and recombinant human factor VIIa (TF-VIIa) (Homo sapiens, UniProt P08709); test: TF-VIIa Assay; assay type: biochemical; conditions: for % Inhibition TF-VIIa (30 µM): at 30 µM inhibitor; for IC50: read-out: IC50 TF-VIIa
T1 construct: conversion of coagulation factor VII to VIIa by Xa; purchased American Diagnostica, Greenwich Conn; host or cells: VIIa purchased; soluble TF made in house in E. coli
T1 sequence (P08709 61-212 limits assumed): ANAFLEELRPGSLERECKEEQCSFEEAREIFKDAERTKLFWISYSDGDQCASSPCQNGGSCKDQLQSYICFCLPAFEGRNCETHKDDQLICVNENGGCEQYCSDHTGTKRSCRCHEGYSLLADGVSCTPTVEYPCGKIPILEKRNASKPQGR
T1 sequence (P08709 213-466 limits assumed): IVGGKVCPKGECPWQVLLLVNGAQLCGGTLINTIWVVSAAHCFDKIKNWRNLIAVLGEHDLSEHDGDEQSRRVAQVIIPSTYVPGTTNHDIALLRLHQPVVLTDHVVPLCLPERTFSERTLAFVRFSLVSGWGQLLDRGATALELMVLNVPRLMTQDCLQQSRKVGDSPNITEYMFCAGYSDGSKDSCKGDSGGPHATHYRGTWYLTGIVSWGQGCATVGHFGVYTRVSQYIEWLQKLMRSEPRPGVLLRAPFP
T1 sequence (P13726 33-251 partner limits assumed): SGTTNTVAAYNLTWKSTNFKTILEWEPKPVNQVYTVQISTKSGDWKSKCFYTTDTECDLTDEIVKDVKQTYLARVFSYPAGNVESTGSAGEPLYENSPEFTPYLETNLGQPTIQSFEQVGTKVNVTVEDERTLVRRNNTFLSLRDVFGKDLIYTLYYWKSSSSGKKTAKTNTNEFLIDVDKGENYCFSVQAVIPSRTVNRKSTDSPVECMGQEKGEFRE

Chain of Human factor Xa (P00742 41-179 limits assumed): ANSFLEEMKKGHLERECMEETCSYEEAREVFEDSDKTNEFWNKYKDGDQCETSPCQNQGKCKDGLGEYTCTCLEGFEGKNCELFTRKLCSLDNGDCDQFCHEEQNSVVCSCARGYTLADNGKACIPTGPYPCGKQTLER
Chain of Human factor Xa (P00742 235-488 limits assumed): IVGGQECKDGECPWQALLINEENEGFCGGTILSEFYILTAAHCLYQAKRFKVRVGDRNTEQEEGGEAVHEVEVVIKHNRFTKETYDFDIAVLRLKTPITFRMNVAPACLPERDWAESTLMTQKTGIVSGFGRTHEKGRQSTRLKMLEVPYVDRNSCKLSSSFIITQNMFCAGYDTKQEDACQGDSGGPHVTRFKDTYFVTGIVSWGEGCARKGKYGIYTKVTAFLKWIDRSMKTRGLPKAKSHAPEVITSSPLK

% Inhibition Factor Xa (100 µM) ([1]; inhibitor at 100 µM): 3%
% Inhibition TF-VIIa (100 µM) ([2]; inhibitor at 100 µM): 2%
Structure (SMILES): O=C(Cn1c(-c2cccc(Cl)c2)c(Cl)nc(NCCc2ccc(Cl)cc2)c1=O)NCCc1cccnc1 [Example E-0083]

% Inhibition Factor Xa (100 µM) ([1]; inhibitor at 100 µM): 0%
% Inhibition TF-VIIa (100 µM) ([2]; inhibitor at 100 µM): 0%
Structure (SMILES): O=C(Cn1c(-c2ccccc2)c(Cl)nc(NCCc2cccnc2)c1=O)NCCc1ccncc1 [Example E-0013]

% Inhibition Factor Xa (100 µM) ([1]; inhibitor at 100 µM): 0%
% Inhibition TF-VIIa (100 µM) ([2]; inhibitor at 100 µM): 0%
Structure (SMILES): O=C(Cn1c(-c2ccc3c(c2)OCO3)c(Cl)nc(NCCc2ccncc2)c1=O)NCCc1ccncc1 [Example E-0046]

% Inhibition Factor Xa (100 µM) ([1]; inhibitor at 100 µM): 3%
% Inhibition TF-VIIa (100 µM) ([2]; inhibitor at 100 µM): 1%
Structure (SMILES): O=C(Cn1c(-c2cccc(Cl)c2)c(Cl)nc(NCCc2cccc(Cl)c2)c1=O)NCCc1cccnc1 [Example E-0092]

% Inhibition Factor Xa (100 µM) ([1]; inhibitor at 100 µM): 0%
% Inhibition TF-VIIa (100 µM) ([2]; inhibitor at 100 µM): 0%
Structure (SMILES): O=C(Cn1c(-c2ccc(Cl)cc2)c(Cl)nc(NCCc2cccnc2)c1=O)NCCc1ccncc1 [Example E-0029]

IC50 [2]: 9 nM
Structure (SMILES): CC(C)Nc1nc(Cl)c(-c2cc(N)cc(C(=O)NCc3ccccc3Cl)c2)n(CC(=O)NCc2ccc(C(=N)N)cc2)c1=O [Example 128-10]

IC50 [2]: 52 nM
Structure (SMILES): CC(C)Nc1nc(Cl)c(-c2cc(N)cc(C(=O)NCC(c3ccccc3)c3ccccc3)c2)n(CC(=O)NCc2ccc(C(=N)N)cc2)c1=O [Example 128-22]

IC50 [2]: 37 nM
Structure (SMILES): CC(C)Nc1nc(Cl)c(-c2cc(N)cc(C(=O)NCCCc3ccccc3)c2)n(CC(=O)NCc2ccc(C(=N)N)cc2)c1=O [Example 128-21]

IC50 [2]: 33.7 nM
Structure (SMILES): CC(C)Nc1nc(Cl)c(-c2cc(N)cc(C(=O)NCc3ccc4ccccc4c3)c2)n(CC(=O)NCc2ccc(C(=N)N)cc2)c1=O [Example 128-23]

IC50 [2]: 18.7 nM
Structure (SMILES): CC(C)Nc1nc(Cl)c(-c2cc(N)cc(C(=O)NC3CCc4ccccc4C3)c2)n(CC(=O)NCc2ccc(C(=N)N)cc2)c1=O (centres unmarked) [Example 128-24]

Second part, the compound before the results:

Structure (SMILES): O=C(Cn1c(-c2ccc(-c3ccccc3)cc2)c(Cl)nc(NCc2ccccc2)c1=O)NCCc1ccncc1 [Example E-0109]
% Inhibition Factor Xa (100 µM) [1]: 3%
% Inhibition TF-VIIa (100 µM) [2]: 2%

Structure (SMILES): N=C(N)c1ccc(CNC(=O)Cn2c(-c3ccc(-c4ccccc4)cc3)c(Cl)nc(NCCc3ccccc3)c2=O)cc1 [1471-71]
% Inhibition Factor Xa (30 µM) ([1]; at 30 µM inhibitor): 0%
% Inhibition TF-VIIa (30 µM) [2]: 6%

Structure (SMILES): O=C(Cn1c(-c2ccc(-c3ccccc3)cc2)c(Cl)nc(NCc2ccccc2)c1=O)NCCc1cccnc1 [Example E-0110]
% Inhibition Factor Xa (100 µM) [1]: 3%
% Inhibition TF-VIIa (100 µM) [2]: 0%

Structure (SMILES): N=C(N)c1ccc(CNC(=O)Cn2c(-c3ccc(Cl)cc3)c(Cl)nc(NCc3ccncc3)c2=O)cc1 [1471-19]
% Inhibition Factor Xa (30 µM) ([1]; at 30 µM inhibitor): 26%
% Inhibition TF-VIIa (30 µM) [2]: 33%

Structure (SMILES): N=C(N)c1ccc(CNC(=O)Cn2c(-c3ccccc3)c(Cl)nc(NCc3c(F)cccc3C(F)(F)F)c2=O)cc1 [1512-44]
% Inhibition Factor Xa (30 µM) ([1]; at 30 µM inhibitor): 6%
% Inhibition TF-VIIa (30 µM) [2]: 43%

Structure (SMILES): N=C(N)c1ccc(CNC(=O)Cn2c(-c3ccccc3)c(Cl)nc(NCc3ccccn3)c2=O)cc1 [1507-24]
% Inhibition Factor Xa (30 µM) ([1]; at 30 µM inhibitor): 15%
% Inhibition TF-VIIa (30 µM) [2]: 0%

Structure (SMILES): C[C@@H](Nc1nc(Cl)c(-c2cccc(N)c2)n(CC(=O)NCc2ccc(C(=N)N)cc2)c1=O)C(=O)O [Example 134]
IC50 [2]: 51 nM

Structure (SMILES): N=C(N)c1ccc(CNC(=O)Cn2c(-c3ccccc3)c(Cl)nc(NCc3cccc4ccccc34)c2=O)cc1 [1507-28]
% Inhibition TF-VIIa (30 µM) [2]: 38%

Structure (SMILES): N=C(N)c1ccc(CNC(=O)Cn2c(-c3ccc(C(F)(F)F)cc3)c(Cl)nc(NC3CCC3)c2=O)cc1 [1515-20]
% Inhibition TF-VIIa (30 µM) [2]: 32%

Structure (SMILES): N=C(N)c1ccc(CNC(=O)Cn2c(-c3ccc4c(c3)OCO4)c(Cl)nc(NCCc3cccc(Cl)c3)c2=O)cc1 [1471-46]
% Inhibition Factor Xa (30 µM) ([1]; at 30 µM inhibitor): 21%

Structure (SMILES): CCCCNc1nc(Cl)c(-c2cccc(N)c2)n(CC(=O)NCc2ccc(C(=N)N)cc2F)c1=O [1543-36]
% Inhibition Factor Xa (30 µM) ([1]; at 30 µM): 15%

Structure (SMILES): N=C(N)c1ccc(CNC(=O)Cn2c(-c3ccccc3)c(Cl)nc(NCCc3ccncc3)c2=O)cc1 [1471-13]
% Inhibition Factor Xa (30 µM) ([1]; at 30 µM inhibitor): 0%

Structure (SMILES): CC(C)Nc1nc(Cl)c(-c2cc(N)cc(C(=O)O)c2)n(CC(=O)NCc2ccc(C(=N)N)cc2)c1=O [Example 123]
IC50 [2]: 20 nM

Structure (SMILES): N=C(N)c1ccc(CNC(=O)Cn2c(-c3ccc4c(c3)OCO4)c(Cl)nc(NCCc3ccncc3)c2=O)cc1 [1471-45]
% Inhibition Factor Xa (30 µM) ([1]; at 30 µM inhibitor): 24%

Structure (SMILES): N=C(N)c1ccc(CNC(=O)Cn2c(-c3ccccc3)c(Cl)nc(NC3CCC3)c2=O)cc1 [1507-21]
% Inhibition Factor Xa (30 µM) ([1]; at 30 µM inhibitor): 23%

Structure (SMILES): COC(=O)c1cccc(-c2c(Cl)nc(NC(C)C)c(=O)n2CC(=O)NCc2ccc(C(=N)N)cc2)c1 [Example 64]
% Inhibition Factor Xa (30 µM) ([1]; at 30 µM inhibitor): 19%

Structure (SMILES): N=C(N)c1ccc(CNC(=O)Cn2c(-c3ccc4c(c3)OCO4)c(Cl)nc(NCc3ccccc3)c2=O)cc1 [1471-41]
% Inhibition Factor Xa (30 µM) ([1]; at 30 µM inhibitor): 34%
